The nature of data set [1]: Solubility of the compound in FaSSIF at pH 6.5 incubated for 4 to 24 hrs by LC/MS analysis. Format: physicochemical. Particulars: time 4-24 hrs.
For data set [2], the target named is T1, NACHT, LRR and PYD domains-containing protein 3 (Homo sapiens, UniProt Q96P20). In words: Inhibition of NLRP3 in LPS/nigericin-induced human THP-1 cells assessed as inhibition of IL-1beta production pretreated with LPS for 3 hrs followed by incubation with compound for 15 mins and later stimulated with nigericin for 90 mins by AlphaLISA assay. Format: cell-based. (In Alpha technology, singlet oxygen from a donor bead excites a nearby acceptor bead.)

Data set [3] in a line: Plasma protein binding in human by equilibrium dialysis method. The settings on record: read-out: PPB (converted). Format: ADME, cell-free. A general note: In equilibrium dialysis only unbound substance equilibrates across the membrane.
Data set [4] in a line: Lipophilicity, logD of the compound. The settings on record: octanol/water. The data set is classed as physicochemical.
The target of data set [5] is T1, NACHT, LRR and PYD domains-containing protein 3. In words: Inhibition of NLRP3 in human whole blood assessed as inhibition of IL-1beta production pretreated with LPS for 3 hrs followed by incubation with compound for 0.5 hrs and later incubated with ATP for 1.5 hrs by AlphaLISA assay. Format: tissue-based.
Data set [6] can be described thus: Metabolic stability in mouse liver microsomes assessed as compound remaining incubated for 60 mins. The data set is classed as ADME, Microsome. Particulars: read-out: Stability.
The nature of data set [7]: Apparent permeability of the compound in human Caco-2 cells at 25 umol/L incubated for 2 hrs by LC/MS/MS analysis. The data set is classed as ADME, cell-based. Particulars: dose 25 µmol/L. (In general: Passage across Caco-2 layers is used to estimate intestinal permeability.)
Data set [8] is described as follows: Oral bioavailability in Sprague-Dawley rat at 1 mg/kg measured for 25 hrs. The settings on record: in vivo. The data set is classed as ADME, organism-based.
Data set [9] can be described thus: Metabolic stability in dog liver microsomes assessed as compound remaining incubated for 60 mins. The data set is classed as ADME, Canis lupus familiaris, Microsome. The settings on record: read-out: Stability.
A further data set has as its target Cytochrome P450 3A4 (Homo sapiens, UniProt P08684). In words: Inhibition of CYP3A4 in human liver microsomes using testosterone and midazolam as substrates by LC-MS/MS analysis. The data set is classed as ADME, Microsome.
Data set [10] can be described thus: Metabolic stability in human liver microsomes assessed as compound remaining incubated for 60 mins. The settings on record: read-out: Stability. The data set is classed as ADME, Microsome.
For a further data set, the system named is THP-1. In words: cells. Particulars: Homo sapiens.
The nature of data set [11]: Cmax in Sprague-Dawley rat at 1 mg/kg, po measured for 25 hrs. Format: ADME, organism-based. More on the design: dose 1 mg/kg, time 25 hrs, route po. The settings on record: in vivo.
A short description of data set [12]: Plasma protein binding in mouse by equilibrium dialysis method. The data set is classed as ADME, cell-free. The settings on record: read-out: PPB (converted).
Data set [13] in a line: Mean residence time in Sprague-Dawley rat at 1 mg/kg, po. Format: ADME, organism-based. The settings on record: in vivo.
A short description of data set [14]: Plasma protein binding in rat by equilibrium dialysis method. The data set is classed as ADME, cell-free. The settings on record: read-out: PPB (converted).
Data set [15] is described as follows: Metabolic stability in rat liver microsomes assessed as compound remaining incubated for 60 mins. Format: ADME, Microsome. Particulars: read-out: Stability.
Data set [16] is described as follows: Volume of distribution at steady state in Sprague-Dawley rat at 0.3 mg/kg, iv measured for 25 hrs. The data set is classed as ADME, organism-based. The settings on record: in vivo, read-out: Vdss.
Data set [17] is described as follows: Mean residence time in Sprague-Dawley rat at 0.3 mg/kg, iv. Particulars: in vivo. Format: ADME, organism-based.
Data set [18] concerns Mus musculus. In words: Anti-inflammatory activity against LPS-stimulated C57BL/6J mouse assessed as reduction in IL-1beta level administered orally pretreated for 0.5 hrs before LPS challenge and measured after 4 hrs by ELISA. The data set is classed as functional, organism-based. Particulars: dose 1-10 mg/kg, route po, time 4.5 hrs.
The nature of data set [19]: Total body clearance in Sprague-Dawley rat at 0.3 mg/kg, iv measured for 25 hrs. The data set is classed as ADME, organism-based. Particulars: in vivo.
Data set [20] addresses NLR family CARD domain-containing protein 4 (Homo sapiens, UniProt Q9NPP4). In words: Inhibition of NLRC4 (unknown origin) in PMA-differentiated human THP-1 cells assessed as inhibition of IL-1 beta production pretreated for 15 mins followed by flagellin stimulation and measured after 18 hrs by AlphaLISA assay. Format: cell-based.
The subject of data set [21] is Mus musculus. In words: Anti-inflammatory activity against adriamycin-induced glomerulonephritis BALB/c mouse model assessed as decrease in urine albumin-to-creatinine ratio administered orally for 2 weeks and measured for 24 hrs. The data set is classed as functional, organism-based. The settings on record: dose 30-300 mg/kg, route po, time 15.0 day.

Structures are written as SMILES. pIC50: −log10 of the molar value. Converted amounts (≈) assume the structure as drawn.

From ChEMBL document CHEMBL5356996, “Discovery of Novel NLRP3 Inflammasome Inhibitors Composed of an Oxazole Scaffold Bearing an Acylsulfamide” (ACS Med Chem Lett, 2023) come the findings set out here.

As usually defined, the solubility is the concentration that dissolves in the medium under given conditions. The low end stands for little dissolved substance, the high end for much dissolved substance. Broadly, the pIC50 is the negative decadic logarithm of the IC50, by convention in mol/L. For orientation: logD means the decadic logarithm of the distribution of all forms, ionised or not, between an organic phase and buffer at a given pH. Low values mean a more hydrophilic compound, high ones a more lipophilic compound. A word on the Papp: it is a coefficient for how fast a substance crosses the barrier. Usually Cmax stands for the maximum level reached in the sampled fluid or tissue. The MRT is the average time that molecules of a dose stay in the body. For orientation: clearance means the rate of elimination divided by the concentration. Higher therefore signals efficient removal.

T1 sequence (Q96P20 whole entry, the tested form may be a part): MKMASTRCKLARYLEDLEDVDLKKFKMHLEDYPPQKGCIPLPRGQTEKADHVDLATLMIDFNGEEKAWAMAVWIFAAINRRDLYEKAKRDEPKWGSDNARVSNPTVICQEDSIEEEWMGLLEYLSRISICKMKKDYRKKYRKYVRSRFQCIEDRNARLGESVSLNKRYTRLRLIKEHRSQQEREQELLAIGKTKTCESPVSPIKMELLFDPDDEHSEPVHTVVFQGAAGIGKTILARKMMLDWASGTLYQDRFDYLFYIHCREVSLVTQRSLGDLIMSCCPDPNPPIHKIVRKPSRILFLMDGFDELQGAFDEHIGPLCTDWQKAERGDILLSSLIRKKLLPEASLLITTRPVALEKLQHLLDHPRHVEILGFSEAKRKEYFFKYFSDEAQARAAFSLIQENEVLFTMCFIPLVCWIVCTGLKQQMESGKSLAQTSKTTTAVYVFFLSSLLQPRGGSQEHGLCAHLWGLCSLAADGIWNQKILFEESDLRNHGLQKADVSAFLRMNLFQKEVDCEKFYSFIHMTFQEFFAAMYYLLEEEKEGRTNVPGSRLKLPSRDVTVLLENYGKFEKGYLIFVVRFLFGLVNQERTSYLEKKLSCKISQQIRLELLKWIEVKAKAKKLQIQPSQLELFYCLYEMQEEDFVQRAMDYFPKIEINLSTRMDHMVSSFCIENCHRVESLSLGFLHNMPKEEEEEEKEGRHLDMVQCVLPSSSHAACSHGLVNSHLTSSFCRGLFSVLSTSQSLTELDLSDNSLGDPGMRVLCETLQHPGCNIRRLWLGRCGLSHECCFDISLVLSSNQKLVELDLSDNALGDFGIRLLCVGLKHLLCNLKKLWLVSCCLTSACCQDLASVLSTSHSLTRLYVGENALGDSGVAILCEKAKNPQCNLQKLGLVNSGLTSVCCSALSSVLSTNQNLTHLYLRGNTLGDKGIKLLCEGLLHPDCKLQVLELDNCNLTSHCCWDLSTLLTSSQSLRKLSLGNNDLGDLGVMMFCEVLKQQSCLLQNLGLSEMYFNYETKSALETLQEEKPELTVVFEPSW
Sequence of Cytochrome P450 3A4 (P08684 whole entry): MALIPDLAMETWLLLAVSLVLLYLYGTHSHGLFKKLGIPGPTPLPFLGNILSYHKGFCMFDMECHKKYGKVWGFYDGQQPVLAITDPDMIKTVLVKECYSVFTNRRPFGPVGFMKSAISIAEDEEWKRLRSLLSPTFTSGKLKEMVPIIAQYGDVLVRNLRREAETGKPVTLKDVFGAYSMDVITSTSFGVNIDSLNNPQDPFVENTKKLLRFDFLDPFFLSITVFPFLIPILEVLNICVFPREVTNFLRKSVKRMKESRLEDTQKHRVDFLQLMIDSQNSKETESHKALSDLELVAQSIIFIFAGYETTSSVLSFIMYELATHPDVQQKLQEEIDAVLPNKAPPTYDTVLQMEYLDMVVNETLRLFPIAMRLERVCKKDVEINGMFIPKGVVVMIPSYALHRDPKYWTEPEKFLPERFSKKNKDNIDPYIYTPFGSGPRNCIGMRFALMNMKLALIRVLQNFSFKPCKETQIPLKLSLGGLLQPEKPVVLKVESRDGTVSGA
Sequence of NLR family CARD domain-containing protein 4 (Q9NPP4 whole entry, the tested form may be a part): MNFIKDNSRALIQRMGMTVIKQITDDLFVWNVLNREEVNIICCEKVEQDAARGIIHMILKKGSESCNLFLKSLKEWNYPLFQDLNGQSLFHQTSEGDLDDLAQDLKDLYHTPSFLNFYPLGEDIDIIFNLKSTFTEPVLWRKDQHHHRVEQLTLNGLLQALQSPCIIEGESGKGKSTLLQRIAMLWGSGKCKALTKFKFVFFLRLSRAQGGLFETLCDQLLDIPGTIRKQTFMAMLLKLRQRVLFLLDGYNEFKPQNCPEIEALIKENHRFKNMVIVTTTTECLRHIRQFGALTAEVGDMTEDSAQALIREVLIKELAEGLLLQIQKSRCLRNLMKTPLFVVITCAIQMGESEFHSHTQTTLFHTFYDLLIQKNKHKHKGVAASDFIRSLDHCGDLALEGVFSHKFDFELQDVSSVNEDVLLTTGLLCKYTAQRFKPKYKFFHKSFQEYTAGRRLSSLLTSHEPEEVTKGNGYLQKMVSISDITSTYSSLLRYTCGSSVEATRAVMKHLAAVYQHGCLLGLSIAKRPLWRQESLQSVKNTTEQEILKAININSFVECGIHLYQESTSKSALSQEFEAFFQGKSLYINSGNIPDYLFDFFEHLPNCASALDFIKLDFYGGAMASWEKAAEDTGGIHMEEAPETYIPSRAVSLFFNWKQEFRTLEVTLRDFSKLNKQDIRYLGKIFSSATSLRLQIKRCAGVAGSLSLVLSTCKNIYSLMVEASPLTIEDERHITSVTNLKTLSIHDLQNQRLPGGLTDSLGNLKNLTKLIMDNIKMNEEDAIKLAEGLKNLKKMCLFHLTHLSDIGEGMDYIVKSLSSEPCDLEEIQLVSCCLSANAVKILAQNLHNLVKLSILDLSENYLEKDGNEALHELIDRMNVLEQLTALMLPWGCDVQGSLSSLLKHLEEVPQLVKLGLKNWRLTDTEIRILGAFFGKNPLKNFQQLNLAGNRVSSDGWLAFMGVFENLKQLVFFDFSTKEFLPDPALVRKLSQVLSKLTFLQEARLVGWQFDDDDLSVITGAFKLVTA
Description for THP-1: Inhibition of pyroptosis in human THP-1 cells pretreated with LPS for 3 hrs followed by incubation with compound for 15 mins and later stimulated with nigericin for 90 mins by CytoTox-Glo assay

In turn, `NC(=O)c1cnc(Nc2c3c(cc4c2CCC4)CCC3)o1` had a solubility in [1] of 45.6 µM (≈ 12.9 µg/mL). Moreover, the negative logarithm of the IC50 (pIC50) in data set [2] is < 4.52.

Regarding `Cc1ccc(C(F)(F)F)cc1Nc1nc(C(=O)NS(=O)(=O)N(C)C)co1`, the fraction unbound in data set [3] was 0.004. This compound gave a logD in [4] of 2.4.

Turning to `CCOC(=O)c1cnc(Nc2c3c(cc4c2CCC4)CCC3)[nH]1`, the negative logarithm of the IC50 (pIC50) in data set [2] was < 4.52.

In the case of `COC(=O)[C@H]1CCCN1C(=O)Nc1c2c(cc3c1CCC3)CCC2`, in data set [2], the pIC50 was < 5.00.

Turning to `Cc1ccc(C)c(Nc2nc(C(=O)NS(=O)(=O)N(C)C)co2)c1`, the values for the pIC50 in data set [5] and in data set [2] were 4.96 and 6.29, respectively. For the same compound, the logD in data set [4] worked out at 2.

`Cc1ccc(C2CCC2)cc1Nc1nc(C(=O)NS(=O)(=O)N(C)C)co1`: in data set [4], the logD amounted to 2.9.

Turning to `Cc1ccc(C(F)(F)F)cc1Nc1nc(C(=O)NS(=O)(=O)N2CCCOCC2)co1`, the remaining at 1 h in [6] is 45.5%; in [9] it was 90%; in [10], 71.2%; in data set [15] it was 90.3%. In data set [7], the Papp at 2 h, 25 µM was found to be 27.8 ×10⁻⁶ cm/s. Moreover, in [8], the bioavailability turned out to be 121%. The values for the pIC50 (against Cytochrome P450 3A4; with THP-1; in data set [20]) were < 5.00, 7.55 and < 4.52, respectively. Further, the fraction unbound in data set [3] is 0.009; in data set [12] it was 0.062; in data set [14], 0.034. The peak level in data set [11] (Cmax) was 3.8 µM. The results for the MRT in data set [13] and in data set [17] were 6.3 h and 4.7 h, respectively. The solubility in data set [1] came to 444 µM (≈ 199 µg/mL). In data set [16], the Vd amounted to 0.28 L/kg. For the same compound, the logD in [4] was 2.4. Further, the Activity result in the data set on Mus musculus [18] and with Mus musculus [21] was “Dose-Dependent Effect” each time. In data set [19], this compound had a clearance of 1 mL/min/kg.

Consider `Cc1ccc(C(F)(F)F)cc1Nc1nc(C(=O)NS(=O)(=O)N2CCCN(S(C)(=O)=O)CC2)co1`, for which, in data set [3], the fraction unbound is 0.011. In data set [4], this compound had a logD of 2.4.

As to `Cc1ccc(C(F)(F)F)cc1Nc1nc(C(=O)NS(=O)(=O)N2CCOCC2)co1`, in data set [3], the fraction unbound is < 0.001. The pIC50 in [5] is 5.10; in data set [2], 7.42. The same compound gave a logD in [4] of 2.2.

With `Cc1ccc(C(F)(F)F)nc1Nc1nc(C(=O)NS(=O)(=O)N(C)C)co1`, in data set [5], the pIC50 is 5.33. For the same compound, the log distribution coefficient (logD) in [4] was determined as 2.1.

In the case of `CN(C)S(=O)(=O)NC(=O)c1coc(Nc2c3c(cc4c2CCC4)CCC3)n1`, the Papp at 2 h, 25 µM in [7] stood at 48.5 ×10⁻⁶ cm/s. In addition, in data set [1], the concentration in solution (solubility) was 436 µM (≈ 170 µg/mL). Moreover, the pIC50 in data set [5] is 5.11. For the same compound, the logD in data set [4] came to 2.8.

Take `COC(=O)CN1CC(=O)N(c2c3c(cc4c2CCC4)CCC3)C1=O`: the pIC50 in data set [2] was < 4.52.

Regarding `Cc1ccc2c(c1Nc1nc(C(=O)NS(=O)(=O)N(C)C)co1)CCC2`, the pIC50 in [5] was 4.74. Further, the logD in [4] was 2.3.

Turning to `CS(=O)(=O)NC(=O)c1cnc(Nc2c3c(cc4c2CCC4)CCC3)o1`, in data set [7], the Papp at 2 h, 25 µM is 0.13 ×10⁻⁶ cm/s. This compound also displayed a solubility in [1] of 475 µM (≈ 172 µg/mL). Further, in [4], the logD is 2.1. Moreover, in [2], the pIC50 is 5.17.

As for `CC(C)c1ccc2c(c1Nc1nc(C(=O)NS(=O)(=O)N(C)C)co1)CCC2`, the pIC50 in data set [5] was 5.24. Further, the logD in data set [4] was 2.9.

In the case of `CCOC(=O)c1nnc(Nc2c3c(cc4c2CCC4)CCC3)o1`, in [2], the pIC50 is 5.05.

For `COC(=O)c1ccnc(Nc2c3c(cc4c2CCC4)CCC3)n1`, the pIC50 in data set [2] is < 4.52.

Take `Cc1ccc(C(F)(F)F)cc1Nc1nc(C(=O)NS(=O)(=O)N(C)C(C)C)co1`: the fraction unbound in data set [3] is < 0.001. In addition, the logD in [4] is 3.3.

The compound `CCOC(=O)c1cnc(Nc2c3c(cc4c2CCC4)CCC3)o1` gave a solubility in data set [1] of 11.1 µM (≈ 3.47 µg/mL). The logD in data set [4] is 4.6.

Regarding `CC(=O)N1CCCN(S(=O)(=O)NC(=O)c2coc(Nc3cc(C(F)(F)F)ccc3C)n2)CC1`, in data set [3], the fraction unbound was 0.018. In data set [4], this compound displayed a logD of 2.2.

`CNC(=O)c1cnc(Nc2c3c(cc4c2CCC4)CCC3)o1`: the solubility in [1] is 43.9 µM (≈ 13.1 µg/mL). Moreover, in data set [2], the pIC50 was < 4.52.

For the compound `COC(=O)[C@@H]1CCCN1C(=O)Nc1c2c(cc3c1CCC3)CCC2`, the pIC50 in data set [2] was < 5.00.

Take `O=C(O)c1cnc(Nc2c3c(cc4c2CCC4)CCC3)o1`: the Papp at 2 h, 25 µM in data set [7] was found to be 4 ×10⁻⁶ cm/s. The same compound yielded a solubility in data set [1] of 442 µM (≈ 126 µg/mL). The compound further showed a logD in data set [4] of 1.8. The pIC50 in [2] was 5.62.

`CCOC(=O)c1cnc(Nc2c3c(cc4c2CCC4)CCC3)s1`: the pIC50 in data set [2] was < 4.52.

On to `CN(C)S(=O)(=O)NC(=O)c1cnc(Nc2c3c(cc4c2CCC4)CCC3)o1`, for which the Papp at 2 h, 25 µM in data set [7] worked out at 1.2 ×10⁻⁶ cm/s. For the same compound, the solubility in data set [1] was > 475 µM. The same compound returned a logD in data set [4] of 2.3.

Turning to `Cc1ccc(C(F)(F)F)cc1Nc1nc(C(=O)NS(=O)(=O)N2CCCCC2)co1`, in data set [3], the fraction unbound is < 0.001. The compound further displayed a logD in data set [4] of 3.1.

As to `Cc1ccc(C(C)(C)C)cc1Nc1nc(C(=O)NS(=O)(=O)N(C)C)co1`, the pIC50 in data set [5] was 5.11. Moreover, in data set [4], the logD worked out at 3.

Turning to `CN1CCN(C(=O)c2cnc(Nc3c4c(cc5c3CCC5)CCC4)o2)S1(=O)=O`, the Papp at 2 h, 25 µM in data set [7] was determined as 15.5 ×10⁻⁶ cm/s. Besides, the concentration in solution in [1] (solubility) came to 18.1 µM (≈ 7.28 µg/mL). Moreover, the logD in [4] amounted to 3.8.

As for `Cc1ccc(C(C)C)cc1Nc1nc(C(=O)NS(=O)(=O)N(C)C)co1`, the pIC50 is 5.17 in [5] and 6.85 in data set [2]. This compound came in with a logD in data set [4] of 2.7.
